We go through seven molecules from publication PMC3794980, “Identification of Conserved and HLA Promiscuous DENV3 T-Cell Epitopes” (PLoS Neglected Tropical Diseases, 2013).

Read-outs that look alike come from different tables or passages of the source.

Among the targets are DRB1*0101 (Homo sapiens, UniProt P01903+P01911, A100R/D57E/F55L/F60I/F76Y/I96L/L162R/M171V/P40L/Q125E/R42F/V115G/Y59C); DRB1*0401 (Homo sapiens, UniProt P01903+P01911, A100K/A169T/F76Y/I96L/K127E/L162R/M171V/N62H/P40V/Q125Y/R42H/S133A/S149N/S66Y/V115G/V209L/W38E); DRB1*0405 (Homo sapiens, UniProt P01903+P01911, A100R/A169T/D86S/F76Y/I96L/K127E/L162R/M171V/N62H/P40V/Q125Y/R42H/S133A/S149N/S66Y/V115G/V209L/W38E); DRB1*0701 (Homo sapiens, UniProt P01903+P01911, A100R/A102G/A103Q/D57E/D86V/E43K/F76Y/K127E/L162R/M171V/P40G/Q125H/Q99D/R33Q/R42Y/R54Q/S133A/S66F/T210M/V115G/Y107V/Y59L/Y89S); DRB1*0802 (Homo sapiens, UniProt P01903+P01911, A100R/A103L/A169T/F76Y/H45Y/I96F/K41T/L162R/M171V/P40S/Q125H/Q178H/Q39Y/Q99D/R218S/R42G/S66Y/V115G/W38E); DRB1*0901 (Homo sapiens, UniProt P01903+P01911, A100R/A103E/D57H/D86V/F55Y/F60I/F76Y/I96F/K127E/L162R/M171V/P40D/Q125H/Q99R/R33Q/R42F/S133A/S66N/T210M/V115G/W38K/Y107V/Y59G/Y89S); DRB1*1101 (Homo sapiens, UniProt P01903+P01911, A100R/A169T/A87E/I96F/K41T/L162R/M171V/P40S/Q125H/Q178H/Q39Y/Q99D/R42S/S66Y/T262R/V115G/W38E); DRB1*1302 (Homo sapiens, UniProt P01903+P01911, A100E/A169T/K41T/L162R/M171V/P40S/Q125H/Q178H/Q39Y/Q99D/R42S/S66N/T262R/V115G/W38E/Y61H); DRB3*0101 (Homo sapiens, UniProt P01903+P79483); DRB4*0101 (Homo sapiens, UniProt P01903+P13762, G164S); DRB5*0101 (Homo sapiens, UniProt P01903+Q30154); DRB1*0301 (Homo sapiens, UniProt P01903+P01911, A100K/A102G/A103R/A169T/F55Y/I96L/K41T/L162R/M171V/P40S/Q125H/Q178H/Q39Y/R42S/S66N/T106N/T262R/W38E/Y61H); DRB1*0404 (Homo sapiens, UniProt P01903+P01911, A100R/A169T/F76Y/I96L/K127E/L162R/M171V/N62H/P40V/Q125Y/R42H/S133A/S149N/S66Y/V209L/W38E); DRB1*1501 (Homo sapiens, UniProt P01903+P01911).

What all share (experiment): biochemical
Format in all cases: binding

The mark [1] stands for this setting: competitive inhibition of radiolabeled standard peptide, '-' distinct from ND, read-out: Binding Affinity (nM) DRB1*0901.
Where [2] appears, read: competitive inhibition of radiolabeled standard peptide, '-' distinct from ND, read-out: Binding Affinity (nM) DRB1*1302.

Sequence of DRB1*0301 (P01903 26-254, other chains not shown): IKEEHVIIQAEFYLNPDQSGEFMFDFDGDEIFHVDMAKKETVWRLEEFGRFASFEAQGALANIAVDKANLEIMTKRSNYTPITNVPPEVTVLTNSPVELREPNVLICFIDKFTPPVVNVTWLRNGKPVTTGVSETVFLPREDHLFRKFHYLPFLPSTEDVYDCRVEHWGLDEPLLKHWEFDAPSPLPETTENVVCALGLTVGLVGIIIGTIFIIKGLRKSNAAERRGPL
Sequence of DRB1*1101 (P01903 26-254, other chains not shown): as above
Sequence of DRB1*1302 (P01903 26-254 limits assumed, other chains not shown): as the sequence (P01903 26-254, other chains not shown) above

As for `CC[C@H](C)[C@H](NC(=O)[C@H](CC(=O)O)NC(=O)[C@@H](N)CC(C)C)C(=O)N[C@@H](CCC(=O)O)C(=O)N[C@@H](CC(C)C)C(=O)N[C@@H](CCC(N)=O)C(=O)N[C@@H](CCCCN)C(=O)N[C@H](C(=O)N[C@@H](CCC(=O)O)C(=O)N[C@@H](C)C(=O)N[C@H](C(=O)N[C@@H](CCC(N)=O)C(=O)N[C@@H](CC(C)C)C(=O)N[C@@H](C)C(=O)N[C@H](C(=O)O)[C@@H](C)O)[C@@H](C)O)[C@@H](C)O` [Envelope 41-55], the IC50 was 2.3 nM on DRB1*0101; 349 nM on DRB1*0401; 583 nM against DRB1*0405; 3.1 nM against DRB1*0701; 5.1 nM against DRB1*0802; 132 nM at DRB1*0901 (setting [1]). Further, the IC50 at DRB1*1101 amounted to 3260 nM; at DRB1*1302 (setting [2]) it was 27 nM; against DRB3*0101, 3330 nM; at DRB4*0101, 6.5 nM; at DRB5*0101 it was 684 nM.

On to `CC[C@H](C)[C@H](NC(=O)[C@H](CCCCN)NC(=O)CNC(=O)[C@H](CCC(=O)O)NC(=O)[C@@H](NC(=O)[C@H](CS)NC(=O)[C@H](CC(C)C)NC(=O)[C@H](CCCCN)NC(=O)[C@H](CCCNC(=N)N)NC(=O)[C@H](CC(C)C)NC(=O)[C@@H](NC(=O)[C@H](C)NC(=O)[C@H](CC(C)C)NC(=O)[C@H](CCC(N)=O)NC(=O)[C@@H](N)[C@@H](C)O)[C@@H](C)O)[C@@H](C)CC)C(=O)O` [Envelope 51-65], for which the IC50 against DRB1*0301 was 2510 nM; on DRB1*0401, 2140 nM; against DRB1*0404 it was 10100 nM; against DRB1*0405, 6340 nM; against DRB1*0802, 130 nM; at DRB1*0901 (setting [1]), 2340 nM. In addition, the IC50 against DRB1*1101 amounted to 40 nM; at DRB1*1302 (setting [2]) it was 1080 nM; on DRB1*1501 it was 982 nM; against DRB3*0101, 8300 nM; on DRB4*0101, 154 nM; at DRB5*0101, 1850 nM.

`CSCC[C@H](NC(=O)CNC(=O)[C@H](CCCCN)NC(=O)[C@H](CC(C)C)NC(=O)[C@H](CCC(=O)O)NC(=O)[C@H](CC(C)C)NC(=O)[C@H](CCCCN)NC(=O)[C@H](CC(=O)O)NC(=O)[C@H](CCSC)NC(=O)[C@H](CCCCN)NC(=O)[C@H](CC(C)C)NC(=O)[C@H](CCCNC(=N)N)NC(=O)[C@H](CS)NC(=O)[C@H](CCCCN)NC(=O)[C@@H](N)CC(C)C)C(=O)O` [Envelope 281-295]: the IC50 on DRB1*0301 was determined as 17 nM; against DRB1*0401, 2910 nM; against DRB1*0404, 13200 nM; against DRB1*0405, 9740 nM; on DRB1*0701, 2160 nM; on DRB1*0802, 4460 nM. The IC50 amounted to 7010 nM on DRB1*0901; 3330 nM at DRB1*1101; 915 nM at DRB1*1302; 652 nM on DRB1*1501; 31 nM at DRB3*0101; 2500 nM at DRB5*0101.

Consider `CC(C)C[C@H](NC(=O)[C@H](CCCNC(=N)N)NC(=O)[C@H](Cc1c[nH]cn1)NC(=O)[C@H](CC(=O)O)NC(=O)[C@H](CS)NC(=O)[C@H](CC(C)C)NC(=O)[C@H](CCC(N)=O)NC(=O)[C@@H](NC(=O)[C@H](Cc1ccc(O)cc1)NC(=O)[C@@H](NC(=O)[C@H](CCC(=O)O)NC(=O)[C@H](CCCNC(=N)N)NC(=O)[C@H](CC(C)C)NC(=O)[C@H](CCCCN)NC(=O)[C@@H](N)CC(C)C)C(C)C)[C@@H](C)O)C(=O)O` [NS1 169-183], for which the IC50 amounted to 226 nM against DRB1*0101; 2360 nM against DRB1*0301; 474 nM on DRB1*0401; 457 nM at DRB1*0404; 277 nM against DRB1*0405; 136 nM at DRB1*0701. Further, the IC50 against DRB1*0802 turned out to be 2580 nM; against DRB1*1101, 4800 nM; on DRB1*1302 (setting [2]), 9960 nM; on DRB3*0101 it was 747 nM; on DRB4*0101, 878 nM; at DRB5*0101, 1300 nM.

As to `CC[C@H](C)[C@H](NC(=O)[C@H](CC(C)C)NC(=O)[C@H](CCCCN)NC(=O)CN)C(=O)N[C@@H](Cc1c[nH]cn1)C(=O)N[C@@H](CCC(=O)O)C(=O)N[C@@H](Cc1c[nH]c2ccccc12)C(=O)N[C@@H](CS)C(=O)N[C@@H](CS)C(=O)N[C@@H](CCCNC(=N)N)C(=O)N[C@@H](CO)C(=O)N[C@@H](CS)C(=O)N[C@H](C(=O)N[C@@H](CC(C)C)C(=O)N1CCC[C@H]1C(=O)O)[C@@H](C)O` [NS1 305-319], the IC50 was 2600 nM at DRB1*0101; 841 nM at DRB1*0301; 1770 nM at DRB1*0401; 4390 nM on DRB1*0404; 3500 nM against DRB1*0405; 1200 nM on DRB1*0701. Besides, the IC50 was 7200 nM against DRB1*0802; 11400 nM on DRB1*0901 (setting [1]); 4400 nM at DRB1*1101; 3190 nM at DRB1*1302 (setting [2]); 1240 nM against DRB3*0101; 2040 nM on DRB4*0101. The same molecule displayed an IC50 at DRB5*0101 of 6170 nM.

Consider `CSCC[C@H](NC(=O)[C@@H](NC(=O)[C@H](CCC(N)=O)NC(=O)[C@H](Cc1ccccc1)NC(=O)[C@H](CC(N)=O)NC(=O)[C@H](CCCCN)NC(=O)[C@@H]1CCCN1C(=O)[C@@H](N)CC(N)=O)[C@@H](C)O)C(=O)N1CCC[C@H]1C(=O)NCC(=O)N[C@H](C(=O)N[C@@H](Cc1ccccc1)C(=O)N[C@@H](CCC(N)=O)C(=O)N[C@H](C(=O)N[C@H](C(=O)O)[C@@H](C)O)[C@@H](C)O)[C@@H](C)O` [NS3 105-119], for which the IC50 against DRB1*0101 is 49 nM; at DRB1*0301 it was 11600 nM; at DRB1*0401, 5.4 nM; against DRB1*0404, 39 nM; on DRB1*0405, 96 nM; at DRB1*0701, 2790 nM. The IC50 amounted to 175 nM against DRB1*0802; 407 nM against DRB1*0901; 86 nM against DRB1*1101; 2390 nM on DRB1*1302; 2530 nM at DRB3*0101; 843 nM on DRB4*0101. Moreover, the IC50 against DRB5*0101 is 177 nM.

With `CC[C@H](C)[C@H](NC(=O)[C@H](C)N)C(=O)N[C@@H](CCC(N)=O)C(=O)N[C@@H](CCC(N)=O)C(=O)N[C@H](C(=O)N[C@@H](CCCNC(=N)N)C(=O)N[C@@H](CO)C(=O)N[C@@H](CC(C)C)C(=O)N[C@H](C(=O)NCC(=O)N[C@@H](CC(N)=O)C(=O)N[C@@H](CCC(=O)O)C(=O)N[C@@H](CCC(=O)O)C(=O)N[C@@H](Cc1ccccc1)C(=O)N[C@@H](CC(C)C)C(=O)N[C@@H](CC(=O)O)C(=O)N[C@@H](Cc1ccc(O)cc1)C(=O)O)[C@@H](C)CC)C(C)C` [NS5 866-882], the IC50 against DRB1*0101 was 4.3 nM; against DRB1*0301 it was 178 nM; against DRB1*0401, 12 nM; at DRB1*0901 it was 66 nM; at DRB1*1101 it was 421 nM; on DRB1*1302 it was 543 nM. Besides, the IC50 against DRB1*1501 came to 148 nM; against DRB3*0101, 8090 nM; at DRB4*0101, 2020 nM.
